Laboratory results as given in the OPERA property sets (Mansouri et al. 2018).

logP: 1.06
SMILES: Cn1c([N+](=O)[O-])cnc1-c1ccc(N)cc1
